Assays:
[1] = system: C. glutamicum pCES-His-rppA strain; assay: RppA malonyl-CoA biosensor characterization with cerulenin in C. glutamicum; type: cell-based, Corynebacterium glutamicum; conditions: increasing cerulenin concentration
[2] = system: E. coli BL21(DE3) strains expressing AaOKS, AaPKS4 and AaPKS5; assay: AaOKS, AaPKS4 and AaPKS5 malonyl-CoA biosensor experiments using cerulenin; type: cell-based; conditions: different concentrations of cerulenin added to the medium
[3] = system: E. coli BL21(DE3) strain containing the plasmid pTac-5′UTR-Sgr_rppA; assay: RppA malonyl-CoA biosensor characterization with cerulenin in E. coli; type: cell-based
Experimental: After construction of a malonyl-CoA biosensor based on S. griseus RppA, the following experiment was performed in order to examine the applicability of the biosensor. First, the signal of the RppA malonyl-CoA biosensor was defined as the absorbance of culture supernatant at 340 nm (FIG. 3D). Generally, for characterizing a biosensor, different concentrations of a target compound has to be added to examine whether an increased signal occur. However, because malonyl-CoA is a substance that cannot pass through the cell membrane, adding malonyl-CoA to medium is meaningless. Thus, cerulenin (Sigma-aldrich, USA) known to block fatty acid biosynthetic pathways was used to indirectly characterize the biosensor (Omura S (1976), Bacteriol Rev 40:681-697.). Cerulenin blocks fatty acid biosynthetic pathways, and thus leads to the accumulation of malonyl-CoA, a fatty acid precursor. Thus, the concentration of malonyl-CoA in E. coli according to addition of different concentrations of cerulenin as described in previous studies was measured (Xu P, Li L, Zhang F, Stephanopoulos G, Koffas M (2014), Proc Natl Acad Sci USA 111:11299-11304). […] The inoculated cells were cultured in an incubator at 30° C. and 220 rpm for 16 hours, and then the growth (OD600) of the cells and the absorbance at 340 nm of the culture supernatant were measured. […]

[4] = system: P. putida pBBR1-rppA strain; assay: RppA malonyl-CoA biosensor characterization with cerulenin in P. putida; type: cell-based, Pseudomonas putida; conditions: MR-MOPS medium, increasing cerulenin concentration

C/C=C/C/C=C/CCC(=O)[C@H]1O[C@H]1C(N)=O [cerulenin]
normalized production of flaviolin [1]: increased as the cerulenin concentration in the corresponding strain increased | normalized signal [1]: increased as the cerulenin concentration in the corresponding strain increased | signal (absorbance at 300 nm of the culture supernatant) [2]: signal generated from each strain increased as the intracellular malonyl-CoA concentration increased | normalized signal (absorbance of culture supernatant at 340 nm) ([3]; cerulenin 0, 5, 10, 15, 20, 25, 50, and 100 μM, 16 hours, 30° C., compared to the strain that does not express RppA): obviously increased as the concentration of cerulenin increased | normalized production of flaviolin ([3]; increasing cerulenin concentration, also observed by the naked eyes): increased with increasing cerulenin concentration | normalized production of flaviolin [4]: increased as the cerulenin concentration in the corresponding strain increased | normalized signal [4]: increased as the cerulenin concentration in the corresponding strain increased
